Assay results: US7795456B2, “Insecticidal N-substituted sulfoximines” (Dow AgroSciences LLC, priority 2004, dated 2010)
Like-named read-outs stand apart in the source and are kept apart here.

Experiments:
[1] = test system: yellow fever mosquito (Aedes aegypti) larvae; assay: whole plant or invertebrate; format: in vivo; details: 72 h, read-out: YFM 26: % control at 26 ppm against yellow fever mosquito in submerge tests
[2] = test system: corn earworm (Helicoverpa zea)
[3] = test system: beet armyworm (Spodoptera exigua)
[4] = test system: fruit fly (Drosophila melanogaster)
[5] = test system: beet armyworm (Spodoptera exigua); assay: Insecticidal test for beet armyworm in injection assays; details: 1 h, read-out: BAW SYM: % showing intoxicated symptoms at 10 μg/larva against beet armyworm in injection tests
[6] = test system: cotton aphid (Aphis gossypii); assay: Insecticidal test for cotton aphid, foliar spray on squash; details: for pest or weed control at 50 ppm / pest or weed control at 200 ppm: Aphis gossypii, foliar, 72 h; for pest or weed control at 50 ppm: read-out: CA 50: % control at 50 ppm against cotton aphid in foliar spray tests; for pest or weed control at 200 ppm: read-out: CA 200: % control at 200 ppm against cotton aphid in foliar spray tests
[7] = test system: sweet potato whitefly (Bemisia tabaci); assay: Insecticidal test for sweet potato whitefly, foliar spray on cotton; details: Bemisia tabaci, in Gossypium hirsutum, foliar, read-out: SPW 200: % control at 200 ppm against sweet potato whitefly in foliar spray tests
[8] = test system: green peach aphid (Myzus persicae); assay: Insecticidal test for green peach aphid, foliar spray on cabbage seedlings
[9] = 50 μg/cm2, second-instar larvae, 5 days

N#CN=S1(=O)CCCCC1Cc1ccc(Cl)nc1 (stereo not shown) [Compound 5, 2-[(6-chloropyridin-3-yl)methyl]-1-oxidohexahydro-1λ^4-thiopyran-1-ylidenecyanamide]
pest or weed control at 26 ppm [1]: 50 to 59% | CEW 50: % mortality at 50 μg/cm2 against corn earworm in dietary tests [2, 9]: G (Inactive) | BAW 50: % mortality at 50 μg/cm2 against beet armyworm in dietary tests [3, 9]: G (Inactive) | FF 25: % mortality at 25 μg/cm2 against fruit fly in dietary tests ([4]; 25 μg/cm2, 48 h): G (Inactive) | pest or weed control at 0.01 mg [5]: 50 to 59% | pest or weed control at 50 ppm [6]: 90 to 100% | pest or weed control at 200 ppm [6]: 90 to 100%

CC(C)(c1ccc(Cl)nc1)S(C)(=O)=NC#N (stereo not shown) [Compound 9, [1-(6-chloropyridin-3-yl)-1-methylethyl](methyl)oxido-λ^4-sulfanylidenecyanamide]
pest or weed control at 26 ppm [1]: 90 to 100% | CEW 50: % mortality at 50 μg/cm2 against corn earworm in dietary tests [2, 9]: G (Inactive) | BAW 50: % mortality at 50 μg/cm2 against beet armyworm in dietary tests [3, 9]: G (Inactive) | FF SYM: % showing intoxicated symptoms at 25 μg/cm2 against fruit fly in dietary tests ([4]; 25 μg/cm2, 4 h): A (90-100) | FF 25: % mortality at 25 μg/cm2 against fruit fly in dietary tests ([4]; 25 μg/cm2, 48 h): C (70-79) | pest or weed control at 0.01 mg [5]: < 50% | pest or weed control at 50 ppm [6]: 90 to 100% | pest or weed control at 200 ppm [6]: 90 to 100%

N#CN=S1(=O)CCCC1Cc1cnc(Cl)s1 (stereo not shown) [Compound 11, 2-[(2-chloro-1,3-thiazol-5-yl)methyl]-1-oxidotetrahydro-1H-1λ^4-thien-1-ylidenecyanamide]
pest or weed control at 26 ppm [1]: 90 to 100% | CEW 50: % mortality at 50 μg/cm2 against corn earworm in dietary tests [2, 9]: G (Inactive) | BAW 50: % mortality at 50 μg/cm2 against beet armyworm in dietary tests [3, 9]: G (Inactive) | FF 25: % mortality at 25 μg/cm2 against fruit fly in dietary tests ([4]; 25 μg/cm2, 48 h): D (60-69) | pest or weed control at 0.01 mg [5]: 60 to 69% | pest or weed control at 50 ppm [6]: 90 to 100% | pest or weed control at 200 ppm [6]: 90 to 100%

N#CN=S1(=O)CCCC1 [Compound 12, 1-Oxidotetrahydro-1H-1λ^4-thien-1-ylidenecyanamide]
CEW 50: % mortality at 50 μg/cm2 against corn earworm in dietary tests ([2]; in vivo): D (key: A: 90-100; B: 80-89; C: 70-79; D: 60-69; E: 50-59; F: Less than 50; G: Inactive; H: Not tested) | BAW 50: % mortality at 50 μg/cm2 against beet armyworm in dietary tests ([3]; in vivo): F (key: A: 90-100; B: 80-89; C: 70-79; D: 60-69; E: 50-59; F: Less than 50; G: Inactive; H: Not tested) | FF 25: % mortality at 25 μg/cm2 against fruit fly in dietary tests ([4]; in vivo): D (key: A: 90-100; B: 80-89; C: 70-79; D: 60-69; E: 50-59; F: Less than 50; G: Inactive; H: Not tested) | FF SYM: % showing intoxicated symptoms at 25 μg/cm2 against fruit fly in dietary tests ([4]; in vivo): A (key: A: 90-100; B: 80-89; C: 70-79; D: 60-69; E: 50-59; F: Less than 50; G: Inactive; H: Not tested) | pest or weed control at 0.01 mg [5]: 90 to 100% | pest or weed control at 50 ppm [6]: 90 to 100% | pest or weed control at 200 ppm [6]: 90 to 100% | % Control at ppm, against cotton aphid: 0.78 ([6]; in vivo): E (key: A: 90-100; B: 80-89; C: 70-79; D: 60-69; E: 50-59; F: Less than 50; G: Inactive; H: Not tested) | % Control at ppm, against cotton aphid: 3.12 ([6]; in vivo): E (key: A: 90-100; B: 80-89; C: 70-79; D: 60-69; E: 50-59; F: Less than 50; G: Inactive; H: Not tested) | % Control at ppm, against cotton aphid: 12.5 ([6]; in vivo): A (key: A: 90-100; B: 80-89; C: 70-79; D: 60-69; E: 50-59; F: Less than 50; G: Inactive; H: Not tested) | % Control at ppm, against cotton aphid: 50 ([6]; in vivo): A (key: A: 90-100; B: 80-89; C: 70-79; D: 60-69; E: 50-59; F: Less than 50; G: Inactive; H: Not tested) | pest or weed control at 200 ppm [7]: 80 to 89% | % Control at ppm, against green peach aphid: 12.5 ([8]; in vivo): F (key: A: 90-100; B: 80-89; C: 70-79; D: 60-69; E: 50-59; F: Less than 50; G: Inactive; H: Not tested) | % Control at ppm, against green peach aphid: 50 ([8]; in vivo): F (key: A: 90-100; B: 80-89; C: 70-79; D: 60-69; E: 50-59; F: Less than 50; G: Inactive; H: Not tested)

CS(=O)(CCc1ccc(Cl)nc1)=NC#N (stereo not shown) [Compound 13]
CEW 50: % mortality at 50 μg/cm2 against corn earworm in dietary tests [2, 9]: G (Inactive) | BAW 50: % mortality at 50 μg/cm2 against beet armyworm in dietary tests [3, 9]: G (Inactive) | FF 25: % mortality at 25 μg/cm2 against fruit fly in dietary tests ([4]; 25 μg/cm2, 48 h): G (Inactive) | pest or weed control at 0.01 mg [5]: < 50% | % Control at ppm, against cotton aphid: 0.195 ([6]; 0.195 ppm, rundown assay): F (Less than 50) | % Control at ppm, against cotton aphid: 0.78 ([6]; 0.78 ppm, rundown assay): A (90-100) | % Control at ppm, against cotton aphid: 3.12 ([6]; 3.12 ppm, rundown assay): A (90-100) | % Control at ppm, against cotton aphid: 12.5 ([6]; 12.5 ppm, rundown assay): A (90-100) | % Control at ppm, against cotton aphid: 50 ([6]; 50 ppm, rundown assay): A (90-100) | pest or weed control at 50 ppm [6]: 90 to 100% | pest or weed control at 200 ppm [6]: 90 to 100% | pest or weed control at 200 ppm [7]: 90 to 100% | % Control at ppm, against green peach aphid: 0.78 ([8]; 0.78 ppm, rundown assay, 3 days): F (Less than 50) | % Control at ppm, against green peach aphid: 3.12 ([8]; 3.12 ppm, rundown assay, 3 days): C (70-79) | % Control at ppm, against green peach aphid: 12.5 ([8]; 12.5 ppm, rundown assay, 3 days): C (70-79) | % Control at ppm, against green peach aphid: 50 ([8]; 50 ppm, rundown assay, 3 days): B (80-89)

N#CN=S1(=O)CCCC1Cc1ccc(Cl)nc1 (stereo not shown) [Compound 14]
pest or weed control at 26 ppm [1]: 90 to 100% | CEW 50: % mortality at 50 μg/cm2 against corn earworm in dietary tests [2, 9]: G (Inactive) | BAW 50: % mortality at 50 μg/cm2 against beet armyworm in dietary tests [3, 9]: G (Inactive) | FF 25: % mortality at 25 μg/cm2 against fruit fly in dietary tests ([4]; 25 μg/cm2, 48 h): F (Less than 50) | pest or weed control at 50 ppm [6]: 90 to 100% | pest or weed control at 200 ppm [6]: 90 to 100%

CCS(=O)(=NC#N)C(C)c1ccc(Cl)nc1 (stereo not shown) [Compound 18]
CEW 50: % mortality at 50 μg/cm2 against corn earworm in dietary tests [2, 9]: G (Inactive) | BAW 50: % mortality at 50 μg/cm2 against beet armyworm in dietary tests [3, 9]: G (Inactive) | FF 25: % mortality at 25 μg/cm2 against fruit fly in dietary tests ([4]; 25 μg/cm2, 48 h): G (Inactive) | pest or weed control at 0.01 mg [5]: < 50% | pest or weed control at 50 ppm [6]: 90 to 100% | pest or weed control at 200 ppm [6]: 90 to 100% | pest or weed control at 200 ppm [7]: 80 to 89%

N#CN=S1(=O)CCC[C@H]1Cc1ccc(Cl)nc1 (stereo partly shown) [Compound 21]
pest or weed control at 26 ppm [1]: 80 to 89% | CEW 50: % mortality at 50 μg/cm2 against corn earworm in dietary tests [2, 9]: G (Inactive) | BAW 50: % mortality at 50 μg/cm2 against beet armyworm in dietary tests [3, 9]: G (Inactive) | FF 25: % mortality at 25 μg/cm2 against fruit fly in dietary tests ([4]; 25 μg/cm2, 48 h): G (Inactive) | pest or weed control at 50 ppm [6]: 90 to 100% | pest or weed control at 200 ppm [6]: 90 to 100%

CS(=O)(=NC#N)C(Cl)c1ccc(Cl)nc1 (stereo not shown) [Compound 23]
pest or weed control at 26 ppm [1]: 90 to 100% | CEW 50: % mortality at 50 μg/cm2 against corn earworm in dietary tests [2, 9]: G (Inactive) | BAW 50: % mortality at 50 μg/cm2 against beet armyworm in dietary tests [3, 9]: G (Inactive) | FF SYM: % showing intoxicated symptoms at 25 μg/cm2 against fruit fly in dietary tests ([4]; 25 μg/cm2, 4 h): A (90-100) | FF 25: % mortality at 25 μg/cm2 against fruit fly in dietary tests ([4]; 25 μg/cm2, 48 h): A (90-100) | pest or weed control at 0.01 mg [5]: < 50% | pest or weed control at 50 ppm [6]: 90 to 100% | pest or weed control at 200 ppm [6]: 90 to 100%

CS(=O)(=NC#N)C(F)c1ccc(Cl)nc1 (stereo not shown) [Compound 25]
pest or weed control at 26 ppm [1]: 90 to 100% | CEW 50: % mortality at 50 μg/cm2 against corn earworm in dietary tests [2, 9]: G (Inactive) | BAW 50: % mortality at 50 μg/cm2 against beet armyworm in dietary tests [3, 9]: G (Inactive) | FF SYM: % showing intoxicated symptoms at 25 μg/cm2 against fruit fly in dietary tests ([4]; 25 μg/cm2, 4 h): B (80-89) | FF 25: % mortality at 25 μg/cm2 against fruit fly in dietary tests ([4]; 25 μg/cm2, 48 h): C (70-79) | pest or weed control at 50 ppm [6]: 90 to 100% | pest or weed control at 200 ppm [6]: 90 to 100%

CS(=O)(=NC#N)C(Cc1ccccc1)c1ccc(Cl)nc1 (stereo not shown) [Compound 27]
pest or weed control at 26 ppm [1]: 80 to 89% | CEW 50: % mortality at 50 μg/cm2 against corn earworm in dietary tests [2, 9]: G (Inactive) | BAW 50: % mortality at 50 μg/cm2 against beet armyworm in dietary tests [3, 9]: G (Inactive) | FF 25: % mortality at 25 μg/cm2 against fruit fly in dietary tests ([4]; 25 μg/cm2, 48 h): G (Inactive) | pest or weed control at 50 ppm [6]: 90 to 100% | pest or weed control at 200 ppm [6]: 90 to 100%

CC(C)C1CCCS1(=O)=NC#N (stereo not shown) [Compound 32]
CEW 50: % mortality at 50 μg/cm2 against corn earworm in dietary tests [2, 9]: G (Inactive) | BAW 50: % mortality at 50 μg/cm2 against beet armyworm in dietary tests [3, 9]: G (Inactive) | FF 25: % mortality at 25 μg/cm2 against fruit fly in dietary tests ([4]; 25 μg/cm2, 48 h): G (Inactive) | pest or weed control at 0.01 mg [5]: 50 to 59% | pest or weed control at 200 ppm [6]: 80 to 89%

CCS(=O)(CC(C)c1ccc(Cl)nc1)=N[N+](=O)[O-] (stereo not shown) [Compound 38]
pest or weed control at 26 ppm [1]: < 50% | CEW 50: % mortality at 50 μg/cm2 against corn earworm in dietary tests [2, 9]: G (Inactive) | BAW 50: % mortality at 50 μg/cm2 against beet armyworm in dietary tests [3, 9]: G (Inactive) | FF 25: % mortality at 25 μg/cm2 against fruit fly in dietary tests ([4]; 25 μg/cm2, 48 h): G (Inactive) | pest or weed control at 50 ppm [6]: 80 to 89% | pest or weed control at 200 ppm [6]: 90 to 100%
